Reference: patent US20160228444A1, “NUCLEOSIDE ANALOGS AND USES THEREOF” (Ramot at Tel-Aviv University Ltd., priority 2015, published 2016)
Where a name gives a salt, the structure may show the parent alone. Read-outs that look alike come from different tables or passages of the source.

Assays:
[1] = test system: U251 MG human glioma cells; test: FACS viability, annexin V-FITC / PI; assay type: cell-based; details: AN446 24 h; 200 nM Dox 5 h; combination compared to Dox alone; FIG. 1C
Procedure: (§1) Cell viability by flow cytometry analysis (FACS) analysis was determined using the Mebcyto apoptosis kit (MBL-Japan). The cell lines 4T1, U251 (2×10^5 cells/well), astrocytes and the cardiomyoblastic cell line H9C2 (5×10^5 cells/well) were seeded in six-well plates. Following treatment they were trypsinized, washed with PBS, resuspended in […] of binding buffer and double-stained with annexin V-FITC and propidium iodide (PI) according to the manufacturer's instructions. The stained cells were subjected to FACS analyses (Calibur cytometer, Becton Dickinson) where 30,000 cells were allowed to flow for each determination point and the percentage of cells in each state (viability or death) was defined by their distribution in fluorescence dot-plots using WinMdi 2.8 software (Scripps Research Institute, La-Jolla, USA).
(§2) The apoptotic effect of AN446, Dox and their combination was evaluated in U251 and 4T1 cancer cells, and in the non-cancerous rat cardiomyoblast cell line (H9C2) and in primary rat astrocytes, using procedures previously described for AN7 [Tarasenko et al., Invest New Drugs 2012, 30:130-143].

[2] = test system: murine mammary carcinoma 4T1; test: FACS viability, annexin V-FITC / PI; assay type: cell-based; details: AN446 24 h; 200 nM Dox 5 h; combination compared to Dox alone; FIG. 1C
Procedure: as §1, §2

HO-1 = HO-1 protein and mRNA in tumor and heart of xenograft mice (Western blot, qRT-PCR); assay type: in vivo; details: single agent
Procedure: (§3) Tumors and hearts of the mice were rapidly removed, frozen on dry ice and kept at −70° C. Tissue was then homogenized and RNA and proteins extracted using the NucleoSpin® RNA/Protein kit according to the manufacturer's protocol (Macherey-Nagel, GmbH & Co KG).
(§4) Total RNA ([…]) was primed by oligo dT and reverse-transcribed by Verso cDNA kit according to the manufacturer's protocol (Thermo Scientific). Analyses of qPCR were performed with Kapa Sybr® Fast (Kapa Biosystems) on a Step One Plus thermocycler (Applied Biosystems). The comparative threshold method was used to calculate the relative gene expression. Values were normalized against glyceraldehyde 3-phosphate dehydrogenase (GAPDH). Expression of the GAPDH mRNA in each individual sample was used to normalize the dataset. The sequences of the primers were as follows: […]
(§5) Protein levels in the samples were determined with the BCA protein assay kit (Pierce). The samples were subjected to Western blot analyses. The expression of proteins was visualized using their specified primary antibodies followed by the secondary IgG IRDye® 680DX antibody. Each detected band was quantified using the Odyssey Infrared Imaging System (LI-COR Biosciences) and normalized to the level of actin. The fold increase of a specific protein was determined by the ratio of the band intensity obtained from treated and untreated samples.
The effect of the drugs on the expression of genes associated with cell survival and death was examined by following changes in transcription and protein expression in tissue samples taken from the mice with glioblastoma xenografts. Heme oxygenase (HO-1) is known to play a protective role in the heart, whereas, in many cancers it is expressed and promotes growth and survival of neoplastic cells.

bFGF = bFGF protein and mRNA in tumor and heart of xenograft mice (Western blot, qRT-PCR); assay type: in vivo; details: single agent
Procedure: as §3, §4, §5
(§6) The pro-angiogenic factors basic fibroblast growth factor (bFGF) and vascular endothelial growth factor (VEGF) are potent angiogenic stimulators. The expression of bFGF in the tumor and in the heart was evaluated by Western blot and qRT-PCR analyses and expression of VEGF by IHC.

VEGF = VEGF immunohistochemistry in tumor and heart of xenograft mice; assay type: in vivo; details: FIG. 4F
Procedure: as §6

c-Myc = c-Myc and p-c-Myc (Thr 58) Western blot in tumor and heart of xenograft mice; assay type: in vivo
Procedure: as §5
The c-Myc protein is an important regulator of normal cell physiology and in tumor cells it plays an important role in activating oncogenic pathways [Soucek & Evan, Curr Opin Genet Dev 2010, 20:91-95].

fibrous collagen = test: Fibrosis in tumor, heart and kidney of U251 xenograft mice (Picrosirius Red / Fast Green); assay type: in vivo; details: single agent
Procedure: (§7) AN446 was tested in vivo using a xenograft of glioblastoma (U251 cells) in mice.

TNF-α = test: Serum TNF-α in U251 xenograft mice (ELISA); assay type: in vivo; details: single agent, FIG. 8C
Procedure: as §7

MDA-231 cells = test: Median-effect drug interaction, Hoechst viability, 72 h; assay type: cell-based, human; details: Homo sapiens
Procedure: (§8) The ratios of the drug combination were based on the ratio of their IC50 of each drug alone. Cell viability was determined by MTT assay, as described hereinabove. The drugs were added to the cells and incubated for 72 h.
(§9) Drug interaction in adherent cells was evaluated as above except that the viability was determined by Hoechst assay.

[3] = test system: NCI-N87 gastric carcinoma cells; test: as above; assay type: cell-based, human; details: Homo sapiens
Procedure: as §8, §9

T47D cells = test: as above; assay type: cell-based, human
Procedure: as §8, §9

HUT-78 CTCL cells = test: Median-effect drug interaction, MTT viability, 72 h; assay type: cell-based, human
Procedure: (§10) Cell viability was determined by an MTT cell viability assay after 48 hours. MyLa cells (10^4 cells/well), Hut78 cells (5×10^3 cells/well) and normal PBLs (10^5 cells/well) were seeded in 96 well-plates. The PBLs were activated with 40 μg/10^6 cells of phytohemagglutinine (PHA) for 24 h before the experiment.
as §8

PBL = test: as above; assay type: cell-based; details: Homo sapiens
Procedure: as §10, §8

[4] = test system: U251 human glioblastoma xenograft; test: Glioblastoma xenograft model (survival, body weight, tumor volume, tumor weight, Ki-67)
Procedure: Xenograft of glioblastoma: 8- to 10-week-old male Hsd athymic FOXN (Harlan, Jerusalem, Israel) were inoculated sc in the flanks with 5×10^6 U251 cells. Tumor length (L) and width (W) were measured with a caliper twice weekly. Tumor volumes were calculated according to the formula: (L×W2)/2. When the tumor was established (volume of 50-100 mm^3) the mice were randomly divided into six groups treated with: vehicle control (saline); ip Dox 4 mg/kg once weekly; po AN446 25 mg/kg thrice a week; po AN7 50 mg/kg thrice a week; combination of AN446+Dox (4 mg/kg ip Dox once a week and 25 mg/kg po AN446 thrice a week); AN7+Dox (4 mg/kg ip Dox once a week and 50 mg/kg po AN7 thrice weekly). Untreated, non-bearing tumor naive mice were maintained under the same conditions. The experiment was terminated after 25 treatment days, the mice were sacrificed under CO2 and their tumors and hearts were removed, weighed and divided into parts dedicated for immunohistochemistry (IHC) and the rest were frozen (−80° C.) for Western blot and Quantitative PCR (qRT-PCR) analyses.
Inactivation of avidin-biotin nonspecific binding was prevented by a blocking kit, according to the manufacturer's protocol (Vector Laboratories). […] The secondary antibody was biotin conjugated goat anti-rabbit or anti-mouse IgG. Slides were then stained with the ABC peroxidase system, developed with diaminobenzidine (DAB) (Vector Laboratories) and counterstained with hematoxylin (Bio-Optica, Milano, Italy). The slides were examined using an Olympus BX 52 light microscope, and images were taken with an Olympus DP50 digital camera system.
Mice were implanted subcutaneously with U251 cells and when the tumors reached 50-100 mm^3 treatments were initiated. Survival was evaluated by the Kaplan-Meier end-product analysis, where treatment failure (the experimental end points) was a loss of ˜20% body weight, or a tumor volume of >1 cm^3.

COc1cccc2c1C(=O)c1c(O)c3c(c(O)c1C2=O)C[C@@](O)(C(=O)CO)C[C@@H]3O[C@H]1C[C@H](N)[C@H](O)[C@H](C)O1 [Dox, Doxorubicin hydrochloride]
viability / mortality of U251 cells [1]: significantly reduced the viability | viability / mortality of 4T1 cells [2]: significantly reduced the viability | HO-1 mRNA in the heart (HO-1; heart): decreased HO-1 mRNA | HO-1 expression in the heart (decrease) (HO-1; heart, FIGS. 4D, 4E): ~5 fold | tumor HO-1 protein expression (decrease) (HO-1; tumor, FIGS. 4A, 4B): unchanged | expression of mouse bFGF protein in the heart (bFGF; heart, FIG. 4D): decreased significantly | bFGF mRNA in the tumor (bFGF; tumor, FIG. 6): significantly reduced the bFGF mRNA | expression of bFGF in tumors (bFGF; tumor, FIGS. 4A, 4B): decreased significantly | VEGF expression in the heart (VEGF): reduced | c-Myc protein expression in the hearts (c-Myc; heart, FIG. 5B): repressed | c-Myc protein expression in tumors (c-Myc; tumor, FIG. 5A): unaffected | fibrosis in the heart (fibrous collagen; heart, FIGS. 8A-8C): induced fibrosis | fibrosis in the kidneys (fibrous collagen; kidneys, FIG. 8A): induced fibrosis | fibrosis in the tumor (fibrous collagen; tumor, FIG. 8A): reduced fibrosis | serum levels of TNF-α (TNF-α): increased serum levels of TNF-α | IC50 (MDA-231 cells; MDA-MB-231, MDA-231, Dox in combination with AN446, read-out: Dox com IC50): 5.3 nM | IC50 (MDA-231 cells; MDA-MB-231, MDA-231, Dox in combination with SAHA, read-out: Dox com IC50): 4.3 nM | IC50 (MDA-231 cells; MDA-MB-231, MDA-231, single agent, read-out: Dox IC50): 10.2 nM | IC50 ([3]; NCI-N87, NCI-N87, Dox in combination with AN446, read-out: Dox com IC50): 8.5 ± 1 nM | IC50 ([3]; NCI-N87, NCI-N87, single agent, read-out: Dox IC50): 30 ± 1.3 nM | IC50 (T47D cells; Homo sapiens, Dox in combination with AN446, read-out: Dox com IC50): 7.6 nM | IC50 (T47D cells; Homo sapiens, Dox in combination with SAHA, read-out: Dox com IC50): 5.2 nM | IC50 (T47D cells; Homo sapiens, single agent, read-out: Dox IC50): 19 nM | IC50 (T47D cells; single agent, hydrochloride, read-out: Dox IC50): 19.1 nM | IC50 (HUT-78 CTCL cells; HUT-78, single agent, hydrochloride, read-out: Dox IC50): 31 nM | IC50 (HUT-78 CTCL cells; Homo sapiens, HuT78, HUT-78, Dox in combination with AN446, read-out: Dox com IC50): 11 nM | IC50 (HUT-78 CTCL cells; Homo sapiens, HuT78, HUT-78, Dox in combination with SAHA, read-out: Dox com IC50): 12 nM | IC50 (HUT-78 CTCL cells; Homo sapiens, HuT78, HUT-78, single agent, read-out: Dox IC50): 30.8 nM | IC50 (PBL; Dox in combination with AN446, read-out: Dox com IC50): 15 nM | IC50 (PBL; Dox in combination with SAHA, read-out: Dox com IC50): 20 nM | IC50 (PBL; single agent, read-out: Dox IC50): 70 nM | body weight ([4]; Dox 4 mg/kg ip once a week, from day 13): drastic decrease in body weight | treatment failure ([4]; Dox 4 mg/kg ip once a week, weight loss contributing): 60% | Ki-67 positive cells in tumors ([4]; single agent vs vehicle, FIGS. 3E, 3F): considerably more Ki-67 positive cells were detected in tumors of the vehicle-treated mice | survival of mice until end of experiment (day 25) ([4]; single agent: AN446 25 mg/kg or AN7 50 mg/kg po thrice weekly, Dox 4 mg/kg ip once a week, FIG. 3A): 40%
